# Where a SMILES comes first, the peptide text is derived from it. Bridges are numbered along the chain shown (N, C = ends).
# Key:
# chymotrypsin = chymotrypsin (Bos taurus, UniProt P00766); assay: biochemical
# Procedure: Ten microliters of trypsin/chymotrypsin (Sigma Aldrich, Dorset, UK) working solution (0.1 µM in 1 mM HCl) was added into the wells of a black micro-titre plate with corresponding substrate and peptide replicates (0.1–100 µM) in 10 mM phosphate buffer (final volume 210 μL). Additionally, Phe-Pro-Arg- NHMec (Bachem, Cambridge, UK) and Succinyl-Ala-Ala-Pro-Phe-NHMec (Bachem, Cambridge, UK) were performed as substrates for trypsin and chymotrypsin, respectively. The fluorescence intensity of NHMec was monitored at 37 °C continuously for 30 min by a FLUOstar OPTIMA multi-well plate reader (BMG Labtech, Ortenberg, Germany) at wavelengths of 460 nm for emission and 395 nm for excitation.
# H157 cells = type: cell-based, human; settings: 24 h; SD
# Procedure: (§1) MTT (3-(4, 5-dimethylthiazol-2-yl)-2, 5-diphenyltetrazolium bromide) cell viability assay was performed to evaluate the cell proliferation inhibitory rate of synthetic peptides in a series of human cell lines: PC-3 (ATCC® CRL-1435™), H157 (RRID: CVCL_0463), H460 (ATCC® HTB-177™), H838 (ATCC® CRL-5844™), H23 (ATCC® CRL-5800™), MCF-7 (ATCC® HTB-22™), HCT116 (ATCC® CCL-247™), U251MG (ECACC-09063001) and HMEC-1 (ATCC® CRL-3243™) which was detailed in the previous report.
# H23 cells = type: cell-based, human; settings: 24 h; SD
# Procedure: as §1
# MCF-7 cells = type: cell-based, human; settings: 24 h; SD
# Procedure: as §1
# HMEC-1 cells = type: cell-based, human; settings: 24 h; SD
# Procedure: as §1
# H460 cells = type: cell-based, human; settings: 24 h; SD
# Procedure: as §1
# PC-3 cells = type: cell-based, human; settings: 24 h; SD
# Procedure: as §1
# H838 cells = type: cell-based, human; settings: 24 h; SD
# Procedure: as §1
# [1] = system: Candida albicans (NCYC 1467); type: cell-based
# Procedure: (§2) Antimicrobial activity of the synthetic peptides was assessed by determination of MIC/MBC on Escherichia coli (ATCC 11775), Staphylococcus aureus (ATCC 12600), Candida albicans (NCYC 1467) and methicillin-resistant Staphylococcus aureus (MRSA) (NCTC 12493) according to the previous report. Briefly, the test microorganism was inoculated in Mueller Hinton Broth (MHB) medium and incubated overnight at 37 °C. Then the subculture was performed until the optical density (OD) reached the logarithmic growth phase and diluted to 1 × 10^6 colony forming units (CFU)/mL for bacteria and 1 × 10^5 CFU/mL for fungus obtained. The synthetic peptides with the concentration from 1 to 512 µM were double diluted by PBS. Five replications of sterile control, vehicle control and growth control were set as 100 µL MHB/well, 100 µL 1% PBS with subculture solution/well and 100 µl subculture solution/well, respectively. The 96-well plate was incubated at 37 °C overnight. The absorbance of each well at 550 nm was measured by Synergy HT plate reader (Biotech, Minneapolis, MN, USA). The minimum bactericidal concentration was detected by sub-culturing treated samples onto Mueller-Hinton agar (MHA) plate for another eighteen hours at 37 °C.
# [2] = system: Escherichia coli (ATCC 11775); type: cell-based
# Procedure: as §2
# [3] = system: methicillin-resistant Staphylococcus aureus (MRSA) (NCTC 12493); type: cell-based
# Procedure: as §2
# [4] = system: Staphylococcus aureus (ATCC 12600); type: cell-based
# Procedure: as §2
SMILES,Ki (chymotrypsin) [µM],IC50 (H157 cells) [µM],IC50 (H23 cells) [µM],IC50 (MCF-7 cells) [µM],IC50 (HMEC-1 cells) [µM],IC50 (H460 cells) [µM],IC50 (PC-3 cells) [µM],IC50 (H838 cells) [µM],"MBC, C. albicans [1]","MIC, C. albicans [1] [µM]","MBC, E. coli [2]","MIC, E. coli [2] [µM]","MBC, MRSA [3] [µM]","MIC, MRSA [3] [µM]","MBC, S. aureus [4]","MIC, S. aureus [4] [µM]"
CC[C@H](C)[C@@H]1NC(=O)[C@H](CO)NC(=O)[C@H](Cc2ccccc2)NC(=O)[C@H]([C@@H](C)O)NC(=O)[C@H](Cc2c[nH]c3ccccc23)NC(=O)[C@@H](NC(=O)CNC(=O)[C@H](CCCNC(=N)N)NC(=O)[C@H](CC(C)C)NC(=O)[C@H](C)NC(=O)[C@@H](N)CO)CSSC[C@@H](C(=O)N[C@@H](CC(C)C)C(N)=O)NC(=O)[C@@H]2CCCN2C(=O)[C@H](CCCCN)NC(=O)[C@@H]2CCCN2C(=O)[C@@H]2CCCN2C1=O [F-SL] (H-SALRGCWTFSIPPKPCL-NH2; disulfide 6-16),0.309,101 ± 1.74,79.1 ± 6.41,202 ± 10.6,574 ± 9.41,66 ± 2.64,159 ± 6.44,59.7 ± 2.72,>512 µM,>512,>512 µM,>512,>512,>512,>512 µM,>512
CC[C@H](C)[C@@H]1NC(=O)[C@H](CO)NC(=O)[C@H](CCCCN)NC(=O)[C@H]([C@@H](C)O)NC(=O)[C@H](Cc2c[nH]c3ccccc23)NC(=O)[C@@H](NC(=O)CNC(=O)[C@H](CCCNC(=N)N)NC(=O)[C@H](CC(C)C)NC(=O)[C@H](C)NC(=O)[C@H](C)N)CSSC[C@@H](C(=O)N[C@@H](CCCCN)C(N)=O)NC(=O)[C@@H]2CCCN2C(=O)[C@H](CCCCN)NC(=O)[C@@H]2CCCN2C(=O)[C@@H]2CCCN2C1=O [K-SL] (H-AALRGCWTKSIPPKPCK-NH2; disulfide 6-16),–,–,–,–,–,–,–,–,64/64 μM,–,128/128 μM,–,>512,>512,64/64 μM,–
CC(C)C[C@H](NC(=O)[C@@H]1CSSC[C@H](NC(=O)CNC(=O)[C@H](CCCNC(=N)N)NC(=O)[C@H](CC(C)C)NC(=O)[C@H](C)NC(=O)[C@@H](N)CO)C(=O)N[C@@H](Cc2c[nH]c3ccccc23)C(=O)N[C@@H]([C@@H](C)O)C(=O)N[C@@H](CCCCN)C(=O)N[C@@H](CO)C(=O)N[C@@H](Cc2ccc(O)cc2)C(=O)N2CCC[C@H]2C(=O)N2CCC[C@H]2C(=O)N[C@@H](CCCCN)C(=O)N2CCC[C@H]2C(=O)N1)C(N)=O [SL-BBI] (H-SALRGCWTKSYPPKPCL-NH2; disulfide 6-16),–,–,–,–,–,–,–,–,256 µM,256,128/128 μM,–,>512,>512,256 µM,256

# — publication PMC7565067, “Identification and Target-Modification of SL-BBI: A Novel Bowman–Birk Type Trypsin Inhibitor from Sylvirana latouchii” (Biomolecules, 2020)
